Reference: PubChem BioAssay (NCI)
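Five concentrations, 48 hours, 96-well plates. TGI marks complete inhibition of growth.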 Where a SMILES comes first, the peptide text is derived from it. The star is where a group is joined. Boc = CC(C)(C)OC(=O)*

How the values were obtained:
Experiment in all cases: inhibition of tumour cell growth, NCI panel, 48 h
BT-549 breast = system: BT-549 breast
SK-MEL-5 melanoma = system: SK-MEL-5 melanoma
MDA-N = system: MDA-N
CAKI-1 renal = system: CAKI-1 renal
MALME-3M melanoma = system: MALME-3M melanoma
SN12C renal = system: SN12C renal
TK-10 renal = system: TK-10 renal
SK-MEL-2 melanoma = system: SK-MEL-2 melanoma
T-47D breast = system: T-47D breast
HT29 colon = system: HT29 colon
LOX IMVI melanoma = system: LOX IMVI melanoma
OVCAR-5 ovarian = system: OVCAR-5 ovarian
MCF7 breast = system: MCF7 breast
OVCAR-3 ovarian = system: OVCAR-3 ovarian
PC-3 prostate = system: PC-3 prostate
HCT-116 colon = system: HCT-116 colon

| SMILES | TGI (BT-549 breast) | TGI (SK-MEL-5 melanoma) | TGI (MDA-N) | TGI (CAKI-1 renal) | TGI (MALME-3M melanoma) | TGI (SN12C renal) | TGI (TK-10 renal) | TGI (SK-MEL-2 melanoma) | TGI (T-47D breast) | TGI (HT29 colon) | TGI (LOX IMVI melanoma) | TGI (OVCAR-5 ovarian) | TGI (MCF7 breast) | TGI (OVCAR-3 ovarian) | TGI (PC-3 prostate) | TGI (HCT-116 colon) |
| --- | --- | --- | --- | --- | --- | --- | --- | --- | --- | --- | --- | --- | --- | --- | --- | --- |
| CCOCC(NC(=O)C(CC(C)C)NC(=O)OC(C)(C)C)C(N)=O (stereo not drawn) (Boc-Leu-Ser(Et)-NH2; configuration not given here) | > 100 µM | > 100 µM | > 100 µM | > 100 µM | > 100 µM | > 100 µM | > 100 µM | > 100 µM | > 100 µM | > 100 µM | > 100 µM | > 100 µM | > 100 µM | > 100 µM | > 100 µM | > 100 µM |
| NC12CC3CC4C1CC1CC2C(C3)C4(N)C1 | > 100 µM | > 100 µM | > 100 µM | > 100 µM | > 100 µM | > 100 µM | > 100 µM | > 100 µM | > 100 µM | > 100 µM | > 100 µM | > 100 µM | > 100 µM | > 100 µM | > 100 µM | > 100 µM |
| COc1cc(C(=O)Nc2c3ccccc3nc3ccccc23)cc(OC)c1OC | > 100 µM | > 100 µM | > 100 µM | > 67 µM | > 100 µM | > 100 µM | > 100 µM | > 100 µM | > 100 µM | > 100 µM | > 100 µM | > 100 µM | > 100 µM | > 100 µM | > 100 µM | > 100 µM |
| NCCCc1c(-c2ccccc2)nc(N)[nH]c1=O | > 100 µM | > 100 µM | > 100 µM | > 100 µM | > 100 µM | > 100 µM | > 100 µM | > 100 µM | > 100 µM | > 100 µM | > 100 µM | > 100 µM | > 100 µM | > 100 µM | > 100 µM | > 100 µM |
| COC(OC)(c1ccccc1)C(I)I | 23.1 µM | 21.9 µM | 22.6 µM | 24.1 µM | 13.3 µM | 50.4 µM | 26.2 µM | 35.4 µM | 63.1 µM | 34.9 µM | 32.4 µM | 33.1 µM | 47.4 µM | 28.7 µM | 30.7 µM | 18.1 µM |
| Cc1ccc(/C=N/NC2=NCCN2)s1 | > 100 µM | > 100 µM | > 100 µM | > 100 µM | > 100 µM | > 100 µM | > 100 µM | > 100 µM | > 100 µM | > 100 µM | > 100 µM | > 100 µM | > 100 µM | > 100 µM | > 100 µM | > 100 µM |
| CCCC#CC(O)(C(=O)OC1CCN(C)CC1)C1CCCCC1 (centres undefined) | > 100 µM | > 100 µM | > 100 µM | > 100 µM | > 100 µM | > 100 µM | > 100 µM | > 100 µM | > 100 µM | > 100 µM | > 100 µM | > 100 µM | > 100 µM | > 100 µM | > 100 µM | > 100 µM |
| CC1(C)C(=O)C2(OS(=O)(=O)C(F)(F)F)CCC1C2 (centres undefined) | > 100 µM | > 100 µM | > 100 µM | > 100 µM | > 100 µM | > 100 µM | > 100 µM | > 100 µM | > 100 µM | > 100 µM | > 100 µM | > 100 µM | > 100 µM | > 100 µM | > 100 µM | > 100 µM |
| CC(C)(C)OC(=O)NC(Cc1ccc(OCc2ccccc2)cn1)C(=O)N1CCSCC1 (centres undefined) | 71.7 µM | 29.9 µM | > 100 µM | > 100 µM | > 100 µM | > 100 µM | > 100 µM | > 100 µM | 49.6 µM | > 100 µM | > 100 µM | > 100 µM | > 100 µM | > 100 µM | 98.9 µM | > 100 µM |
